ChEMBL document CHEMBL1201862, “PubChem BioAssay data set” (2004)
Active and inactive are the calls of the source.

What was measured:
[1] = molecular target: Epstein-Barr nuclear antigen 1 (Epstein-Barr virus (strain B95-8) (HHV-4) (Human herpesvirus 4), UniProt P03211); experiment: EBNA-1 inhibitors, dose response, biochemical, fluorescence polarization, 1536-well (AID 2381); parameters: species or system human gammaherpesvirus 4;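 further: fluorescence polarization of a Cy5 DNA probe bound by EBNA-1 protein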
Sequence of Epstein-Barr nuclear antigen 1 (P03211 whole entry): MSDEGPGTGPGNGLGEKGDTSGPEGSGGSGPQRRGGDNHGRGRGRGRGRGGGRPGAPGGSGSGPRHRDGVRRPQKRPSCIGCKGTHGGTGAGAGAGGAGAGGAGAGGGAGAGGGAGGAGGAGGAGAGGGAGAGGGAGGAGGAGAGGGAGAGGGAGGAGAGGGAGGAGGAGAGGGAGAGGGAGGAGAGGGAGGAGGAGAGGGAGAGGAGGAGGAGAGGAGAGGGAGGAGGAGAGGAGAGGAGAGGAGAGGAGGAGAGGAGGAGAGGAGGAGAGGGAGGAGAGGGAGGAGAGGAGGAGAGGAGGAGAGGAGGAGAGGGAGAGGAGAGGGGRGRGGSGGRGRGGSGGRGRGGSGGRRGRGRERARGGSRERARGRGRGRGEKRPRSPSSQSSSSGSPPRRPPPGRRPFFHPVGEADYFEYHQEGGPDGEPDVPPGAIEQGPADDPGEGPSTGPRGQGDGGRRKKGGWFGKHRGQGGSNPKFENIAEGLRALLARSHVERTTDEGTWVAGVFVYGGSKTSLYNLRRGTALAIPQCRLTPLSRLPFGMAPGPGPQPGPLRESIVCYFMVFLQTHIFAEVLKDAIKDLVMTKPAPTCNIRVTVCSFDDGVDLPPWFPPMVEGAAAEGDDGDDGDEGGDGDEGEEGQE

[2] = molecular target: Lytic switch protein BZLF1 (Epstein-Barr virus (strain B95-8) (HHV-4) (Human herpesvirus 4), UniProt P03206); experiment: EBV ZTA inhibitors, dose response, counter-screen for EBNA-1 inhibitor project, biochemical, fluorescence polarization, Epstein-Barr virus, 1536-well (AID 2377); parameters: species or system human gammaherpesvirus 4;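 further: fluorescence polarization of Cy5-labelled ZRE DNA probe bound by purified Zta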
Sequence of Lytic switch protein BZLF1 (P03206 whole entry): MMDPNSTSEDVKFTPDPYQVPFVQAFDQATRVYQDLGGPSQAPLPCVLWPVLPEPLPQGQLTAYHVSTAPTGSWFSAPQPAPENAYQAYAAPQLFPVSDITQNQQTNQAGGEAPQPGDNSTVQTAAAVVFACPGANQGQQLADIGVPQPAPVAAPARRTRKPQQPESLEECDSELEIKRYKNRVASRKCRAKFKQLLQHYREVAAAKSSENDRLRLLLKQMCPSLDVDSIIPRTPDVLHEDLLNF

[3] = enhancers of respiration in Yfh1-depleted yeast, dose response, Friedreich's ataxia, plus single-dose screen (AID 1465); type: functional;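 further: yeast depleted of Yfh1p frataxin homolog grown on glycerol needing respiration; WST-1 tetrazolium dye reduction as measure of cellular dehydrogenase metabolic activity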
[4] = molecular target: FAD-linked sulfhydryl oxidase ALR (Homo sapiens, UniProt P55789); experiment: inhibitors of human ALR sulfhydryl oxidase, dose response, biochemical, H2O2 detection, luminescence, cherry-pick (AID 493248)
Sequence of FAD-linked sulfhydryl oxidase ALR (P55789 whole entry): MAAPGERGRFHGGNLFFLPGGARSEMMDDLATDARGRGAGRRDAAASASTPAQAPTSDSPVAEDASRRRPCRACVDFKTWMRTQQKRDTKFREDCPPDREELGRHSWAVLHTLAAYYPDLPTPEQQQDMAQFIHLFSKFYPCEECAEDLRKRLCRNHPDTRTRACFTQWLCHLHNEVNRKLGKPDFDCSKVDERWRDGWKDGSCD

[5] = molecular target: T1, Corticotropin-releasing factor receptor 2/Corticotropin-releasing factor-binding protein (Homo sapiens, UniProt P24387+Q13324); experiment: activators of CRF receptor 2 with binding protein – uHTS hits, confirmation (AID 602473); type: functional; conditions: read-out: EC50_Mean
T1 sequence (Q13324 whole entry): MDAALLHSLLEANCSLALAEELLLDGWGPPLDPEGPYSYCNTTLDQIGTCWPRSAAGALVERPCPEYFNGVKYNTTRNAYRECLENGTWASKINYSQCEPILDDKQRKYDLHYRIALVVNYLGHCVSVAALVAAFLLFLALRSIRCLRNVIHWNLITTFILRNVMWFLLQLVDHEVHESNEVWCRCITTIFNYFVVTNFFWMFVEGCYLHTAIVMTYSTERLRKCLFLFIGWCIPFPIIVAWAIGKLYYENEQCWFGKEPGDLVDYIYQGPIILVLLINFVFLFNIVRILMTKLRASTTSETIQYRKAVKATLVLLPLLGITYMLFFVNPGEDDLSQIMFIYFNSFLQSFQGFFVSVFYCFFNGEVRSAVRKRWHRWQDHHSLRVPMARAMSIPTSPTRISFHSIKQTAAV
T1 sequence (P24387 whole entry): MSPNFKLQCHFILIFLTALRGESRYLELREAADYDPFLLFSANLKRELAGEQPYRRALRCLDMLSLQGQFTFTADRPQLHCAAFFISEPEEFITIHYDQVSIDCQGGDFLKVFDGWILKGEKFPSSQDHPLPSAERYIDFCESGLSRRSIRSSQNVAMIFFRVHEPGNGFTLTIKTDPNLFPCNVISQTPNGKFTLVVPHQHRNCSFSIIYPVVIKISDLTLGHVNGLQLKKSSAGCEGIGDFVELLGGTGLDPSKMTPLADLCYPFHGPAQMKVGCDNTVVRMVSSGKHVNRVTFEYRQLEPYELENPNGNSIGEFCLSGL

[6] = molecular target: Long-chain-fatty-acid--AMP ligase FadD28 (Mycobacterium tuberculosis, UniProt P9WQ59); experiment: Fluorescence polarization aasay to screen for inhibitors that compete for the binding of FadD28 to a bisubstrate Measured in Biochemical System Using Plate Reader - 2147-01_Inhibitor_Dose_CherryPick_Activity.; type: functional, Mycobacterium tuberculosis H37Rv
Sequence of Long-chain-fatty-acid--AMP ligase FadD28 (P9WQ59 whole entry): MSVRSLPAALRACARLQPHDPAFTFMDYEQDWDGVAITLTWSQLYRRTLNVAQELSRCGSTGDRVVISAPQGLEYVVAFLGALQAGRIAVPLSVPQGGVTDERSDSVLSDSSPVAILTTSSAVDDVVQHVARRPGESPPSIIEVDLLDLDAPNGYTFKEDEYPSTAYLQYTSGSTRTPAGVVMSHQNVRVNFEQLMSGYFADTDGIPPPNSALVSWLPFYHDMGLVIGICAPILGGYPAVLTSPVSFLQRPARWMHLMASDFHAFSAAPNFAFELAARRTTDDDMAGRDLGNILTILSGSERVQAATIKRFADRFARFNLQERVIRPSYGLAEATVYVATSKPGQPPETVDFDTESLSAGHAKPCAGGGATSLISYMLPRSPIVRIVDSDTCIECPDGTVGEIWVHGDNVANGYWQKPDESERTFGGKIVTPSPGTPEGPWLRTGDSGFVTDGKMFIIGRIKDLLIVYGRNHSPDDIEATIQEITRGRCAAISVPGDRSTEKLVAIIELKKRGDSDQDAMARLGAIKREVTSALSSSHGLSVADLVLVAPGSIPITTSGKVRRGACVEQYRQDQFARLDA

HeLa = experiment: Cytotoxicity counterscreen assay for transcriptional activators of heat shock protein 70 (Hsp70). [Related pubchem assays: 1203, 1252 ]; type: functional; conditions: Homo sapiens;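 further: cells exposed to compound for 16 hours before readout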
BJ [7] = experiment: cytotoxicity toward BJ-TERT fibroblasts, dose response, cell-based, RAS-independent, luminescence (AID 1933); type: functional; conditions: Homo sapiens
BJ [8] = experiment: cells; type: functional, cell-based; conditions: Homo sapiens
BJ [9] = experiment: cytotoxicity toward BJ-TERT-LT-ST fibroblasts, dose response, cell-based, RAS-independent, luminescence (AID 1935); type: functional; conditions: Homo sapiens;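 further: BJ fibroblasts immortalized with TERT plus LT and ST oncogenes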
[10] = cytotoxicity toward DRD oncogenic fibroblasts, dose response, cell-based, non-viral oncogenic, luminescence (AID 1934); type: functional; conditions: Homo sapiens
[11] = test system: Streptococcus sp. 'group A'; experiment: growth inhibition of control SK(-) GAS strain, dose response, counter-screen for streptokinase expression inhibitor project, luminescence, kanamycin, BacTiterGlo, confirmation (AID 1900); type: functional, organism-based
Streptokinase A = molecular target: T2, Streptokinase A (Streptococcus pyogenes serotype M1, UniProt P10520); experiment: S. pyogenes streptokinase expression inhibitors, potency, dose response, plasminogen activation absorbance, OD405 (AID 1914); type: functional, Streptococcus pyogenes M1 GAS;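 further: secreted streptokinase activity via plasminogen activation per viability signal from cell pellet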
T2 sequence (P10520 whole entry): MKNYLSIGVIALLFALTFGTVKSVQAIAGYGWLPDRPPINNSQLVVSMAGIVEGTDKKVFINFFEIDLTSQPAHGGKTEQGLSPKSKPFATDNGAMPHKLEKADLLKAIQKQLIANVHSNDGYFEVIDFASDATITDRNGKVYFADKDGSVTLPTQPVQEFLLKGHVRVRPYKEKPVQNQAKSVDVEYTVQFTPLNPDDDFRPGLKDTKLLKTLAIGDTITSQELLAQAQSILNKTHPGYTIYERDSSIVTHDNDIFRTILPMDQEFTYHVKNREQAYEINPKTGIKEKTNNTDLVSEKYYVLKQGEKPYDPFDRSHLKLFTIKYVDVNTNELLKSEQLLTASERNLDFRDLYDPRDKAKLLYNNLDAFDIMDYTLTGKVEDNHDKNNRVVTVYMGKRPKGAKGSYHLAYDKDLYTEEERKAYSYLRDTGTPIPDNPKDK

[12] = cytotoxicity in HPDE-C7 cells, cell-based, fluorescence, HTS (AID 430); type: functional; conditions: Homo sapiens
[13] = cytotoxicity in KRAS-transformed pancreatic duct cells, primary screen, cell-based, fluorescence, HTS (AID 431); type: functional; conditions: Homo sapiens;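 further: cell line used: HPDE-C7K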
[14] = molecular target: T3, Calpain-2 catalytic subunit (Sus scrofa, UniProt P43367); experiment: pig calpain II inhibitor potency, dose response, biochemical, fluorogenic peptide substrate (AID 1420); type: functional
T3 sequence (P43367 whole entry): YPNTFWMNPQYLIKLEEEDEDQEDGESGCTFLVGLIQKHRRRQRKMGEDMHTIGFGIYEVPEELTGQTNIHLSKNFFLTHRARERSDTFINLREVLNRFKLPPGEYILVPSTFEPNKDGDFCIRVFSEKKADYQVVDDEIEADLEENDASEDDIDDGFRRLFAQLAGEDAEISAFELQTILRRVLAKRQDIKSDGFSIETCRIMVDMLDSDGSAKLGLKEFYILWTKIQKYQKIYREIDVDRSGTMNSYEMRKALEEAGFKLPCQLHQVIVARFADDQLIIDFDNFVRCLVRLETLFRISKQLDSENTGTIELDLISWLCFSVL

Streptococcus = experiment: Group A Streptococcus viability loss, dose response, counter-screen for streptokinase expression inhibitor project, luminescence, BacTiterGlo (AID 1915); type: functional, organism-based;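 further: potency for reduction of bacterial viability or growth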
[15] = molecular target: T4, Ubiquitin-conjugating enzyme E2 N (Homo sapiens, UniProt P61088); type: functional;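 further: Dose-response confirmation in a TR-FRET assay detecting UBC13-driven polyubiquitin chain formation, inhibition measured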
T4 sequence (P61088 whole entry): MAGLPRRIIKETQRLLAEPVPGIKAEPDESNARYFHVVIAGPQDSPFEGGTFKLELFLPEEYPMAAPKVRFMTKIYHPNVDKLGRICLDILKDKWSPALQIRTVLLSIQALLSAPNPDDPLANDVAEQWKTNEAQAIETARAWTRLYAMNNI

[16] = molecular target: Heat shock protein HSP 90-alpha (Homo sapiens, UniProt P07900); type: functional, organism-based
[17] = molecular target: Disintegrin and metalloproteinase domain-containing protein 17 (Homo sapiens, UniProt P78536); experiment: ADAM17 protease inhibitors, dose response, counter-screen for ADAM10 exosite inhibitor project, biochemical, quenched FRET substrate (AID 743253)
Sequence of Disintegrin and metalloproteinase domain-containing protein 17 (P78536 whole entry, the tested form may be a part): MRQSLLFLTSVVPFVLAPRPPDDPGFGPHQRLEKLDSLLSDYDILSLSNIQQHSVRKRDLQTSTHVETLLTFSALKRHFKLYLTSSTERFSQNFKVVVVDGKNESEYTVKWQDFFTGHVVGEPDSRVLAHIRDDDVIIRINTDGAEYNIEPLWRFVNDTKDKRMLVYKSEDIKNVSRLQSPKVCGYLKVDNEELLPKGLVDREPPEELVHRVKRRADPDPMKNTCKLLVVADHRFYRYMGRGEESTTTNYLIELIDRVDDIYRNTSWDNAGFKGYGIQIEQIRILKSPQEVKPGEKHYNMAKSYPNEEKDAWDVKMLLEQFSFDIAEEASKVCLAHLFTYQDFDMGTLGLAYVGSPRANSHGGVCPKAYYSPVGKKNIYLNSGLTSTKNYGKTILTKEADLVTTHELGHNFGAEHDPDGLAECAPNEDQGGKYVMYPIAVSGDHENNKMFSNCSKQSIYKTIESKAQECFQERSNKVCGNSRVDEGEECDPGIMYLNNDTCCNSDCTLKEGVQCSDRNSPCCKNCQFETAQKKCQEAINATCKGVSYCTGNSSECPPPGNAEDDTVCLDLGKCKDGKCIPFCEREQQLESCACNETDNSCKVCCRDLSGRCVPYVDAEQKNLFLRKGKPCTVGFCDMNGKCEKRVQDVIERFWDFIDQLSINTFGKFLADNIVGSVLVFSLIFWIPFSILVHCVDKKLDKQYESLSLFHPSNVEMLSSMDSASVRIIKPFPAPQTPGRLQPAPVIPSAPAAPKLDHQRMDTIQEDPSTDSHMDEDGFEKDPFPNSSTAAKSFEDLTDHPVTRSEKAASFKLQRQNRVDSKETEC

Leucine aminopeptidase = molecular target: T5, Leucine aminopeptidase (Plasmodium falciparum 3D7, UniProt Q8IL11); experiment: P. falciparum M17LAP inhibitors, primary screen, biochemical, fluorogenic H-Leu-NHMec substrate, 1536-well (AID 1619); type: functional
T5 sequence (Q8IL11 whole entry): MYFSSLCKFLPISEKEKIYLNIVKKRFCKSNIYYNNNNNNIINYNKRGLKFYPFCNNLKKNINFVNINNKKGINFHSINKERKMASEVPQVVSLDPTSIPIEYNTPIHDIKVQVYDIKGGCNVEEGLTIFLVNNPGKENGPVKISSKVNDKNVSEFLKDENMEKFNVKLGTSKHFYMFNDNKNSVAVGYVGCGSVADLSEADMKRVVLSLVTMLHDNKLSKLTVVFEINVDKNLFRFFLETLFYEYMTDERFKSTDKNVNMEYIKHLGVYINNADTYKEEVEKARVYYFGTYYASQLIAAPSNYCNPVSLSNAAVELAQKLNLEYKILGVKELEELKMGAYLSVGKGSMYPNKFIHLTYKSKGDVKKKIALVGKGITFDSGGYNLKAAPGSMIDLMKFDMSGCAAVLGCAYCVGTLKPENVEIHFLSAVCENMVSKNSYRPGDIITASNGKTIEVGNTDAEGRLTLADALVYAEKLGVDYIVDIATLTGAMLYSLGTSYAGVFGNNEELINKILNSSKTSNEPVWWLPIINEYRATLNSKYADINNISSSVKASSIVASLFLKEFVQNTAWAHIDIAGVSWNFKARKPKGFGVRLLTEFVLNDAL

[18] = molecular target: T6, Mannose-6-phosphate isomerase (Homo sapiens, UniProt P34949); experiment: inhibitors of human PMI, primary screen, biochemical, fluorescence intensity, coupled assay (AID 1209)
T6 sequence (P34949 whole entry): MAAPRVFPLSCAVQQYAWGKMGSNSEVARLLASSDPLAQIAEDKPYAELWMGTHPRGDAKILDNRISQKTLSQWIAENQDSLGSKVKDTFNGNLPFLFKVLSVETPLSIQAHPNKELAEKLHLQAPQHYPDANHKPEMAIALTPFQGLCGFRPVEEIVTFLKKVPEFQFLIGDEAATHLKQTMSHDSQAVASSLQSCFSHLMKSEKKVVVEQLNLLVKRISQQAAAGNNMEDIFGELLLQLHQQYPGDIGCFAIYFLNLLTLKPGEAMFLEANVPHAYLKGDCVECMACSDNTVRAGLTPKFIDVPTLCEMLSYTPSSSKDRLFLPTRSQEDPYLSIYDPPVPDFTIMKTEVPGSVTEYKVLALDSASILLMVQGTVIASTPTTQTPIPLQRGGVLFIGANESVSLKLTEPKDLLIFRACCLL

Cytochrome P450 2C19 = Cytochrome P450 2C19 (Homo sapiens, UniProt P33261); experiment: Cytochrome panel assay with activity outcomes. Panel member name: p450-cyp2c19 Compounds with AC50 equal or less than 10 uM are considered active; type: functional; conditions: read-out: AC50
Sequence of Cytochrome P450 2C19 (P33261 whole entry): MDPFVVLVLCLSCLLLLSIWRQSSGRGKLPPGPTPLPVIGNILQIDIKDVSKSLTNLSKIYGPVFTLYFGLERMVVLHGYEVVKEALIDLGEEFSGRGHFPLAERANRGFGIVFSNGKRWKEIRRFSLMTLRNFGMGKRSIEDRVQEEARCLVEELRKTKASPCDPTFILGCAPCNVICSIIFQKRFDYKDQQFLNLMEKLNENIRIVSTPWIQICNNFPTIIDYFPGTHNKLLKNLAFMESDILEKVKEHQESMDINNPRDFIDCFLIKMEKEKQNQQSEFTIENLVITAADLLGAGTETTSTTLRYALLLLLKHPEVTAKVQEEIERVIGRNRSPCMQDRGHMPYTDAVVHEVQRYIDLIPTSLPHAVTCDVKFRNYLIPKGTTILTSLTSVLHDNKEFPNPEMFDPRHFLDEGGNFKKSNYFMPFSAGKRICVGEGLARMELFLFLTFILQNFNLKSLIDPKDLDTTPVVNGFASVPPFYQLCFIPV

Cytochrome P450 1A2 = molecular target: T7, Cytochrome P450 1A2 (Homo sapiens, UniProt P05177);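 further: PubChem cytochrome P450 panel assay, CYP1A2 panel member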
T7 sequence (P05177 whole entry): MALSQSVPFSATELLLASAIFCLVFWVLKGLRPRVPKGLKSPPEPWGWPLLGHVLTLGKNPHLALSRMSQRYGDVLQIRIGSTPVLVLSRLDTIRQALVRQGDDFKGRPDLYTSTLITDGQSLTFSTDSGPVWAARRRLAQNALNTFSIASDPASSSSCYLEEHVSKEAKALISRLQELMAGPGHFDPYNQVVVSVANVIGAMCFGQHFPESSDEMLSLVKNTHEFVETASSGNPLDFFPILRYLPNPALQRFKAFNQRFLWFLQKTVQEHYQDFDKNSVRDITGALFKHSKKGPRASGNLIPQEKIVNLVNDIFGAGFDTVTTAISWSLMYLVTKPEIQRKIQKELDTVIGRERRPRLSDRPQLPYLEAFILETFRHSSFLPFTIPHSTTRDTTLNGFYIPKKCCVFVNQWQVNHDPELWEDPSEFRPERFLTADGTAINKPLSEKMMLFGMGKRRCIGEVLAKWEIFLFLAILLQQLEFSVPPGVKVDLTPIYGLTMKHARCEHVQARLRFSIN

Cytochrome P450 3A4 = Cytochrome P450 3A4 (Homo sapiens, UniProt P08684);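 further: CYP3A4 tested as one member of a cytochrome P450 panel screen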
Sequence of Cytochrome P450 3A4 (P08684 whole entry): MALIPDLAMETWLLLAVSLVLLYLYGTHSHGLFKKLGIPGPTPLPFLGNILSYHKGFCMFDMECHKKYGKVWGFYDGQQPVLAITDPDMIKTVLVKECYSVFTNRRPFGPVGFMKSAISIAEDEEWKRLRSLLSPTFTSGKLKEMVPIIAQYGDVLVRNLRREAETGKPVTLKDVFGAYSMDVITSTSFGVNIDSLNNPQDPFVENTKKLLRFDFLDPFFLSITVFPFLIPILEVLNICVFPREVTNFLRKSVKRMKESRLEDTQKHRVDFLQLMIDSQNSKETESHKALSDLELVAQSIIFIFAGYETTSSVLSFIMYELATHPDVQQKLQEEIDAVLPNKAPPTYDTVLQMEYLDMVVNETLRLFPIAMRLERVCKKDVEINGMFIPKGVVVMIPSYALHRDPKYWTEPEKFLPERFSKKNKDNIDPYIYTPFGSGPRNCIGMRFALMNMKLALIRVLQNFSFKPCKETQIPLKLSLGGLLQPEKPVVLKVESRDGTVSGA

Cytochrome P450 2C9 = Cytochrome P450 2C9 (Homo sapiens, UniProt P11712)
Sequence of Cytochrome P450 2C9 (P11712 whole entry): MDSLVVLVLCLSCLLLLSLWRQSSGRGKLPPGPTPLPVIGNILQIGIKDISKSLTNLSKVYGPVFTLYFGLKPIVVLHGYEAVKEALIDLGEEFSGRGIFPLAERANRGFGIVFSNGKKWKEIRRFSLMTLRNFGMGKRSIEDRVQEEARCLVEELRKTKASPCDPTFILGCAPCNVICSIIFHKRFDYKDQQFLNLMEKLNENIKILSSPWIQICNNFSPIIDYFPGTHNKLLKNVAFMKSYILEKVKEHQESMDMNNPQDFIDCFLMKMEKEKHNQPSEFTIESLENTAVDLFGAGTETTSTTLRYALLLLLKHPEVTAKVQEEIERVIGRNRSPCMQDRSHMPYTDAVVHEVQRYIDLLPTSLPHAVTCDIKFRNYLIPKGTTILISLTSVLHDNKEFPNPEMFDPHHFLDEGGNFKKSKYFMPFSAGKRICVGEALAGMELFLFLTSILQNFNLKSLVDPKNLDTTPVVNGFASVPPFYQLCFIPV

[19] = Luminescence Cell-Based Dose Retest to Confirm Inhibitors of Cancer Stem Cells. [Related pubchem assays (depositor defined):AID2717, AID2721]; type: functional; conditions: Homo sapiens
Nonstructural protein 1 = Nonstructural protein 1 (Influenza A virus, UniProt Q194T2); type: functional, Influenza A virus (A/California/07/2009(H1N1))
Sequence of Nonstructural protein 1 (Q194T2 whole entry): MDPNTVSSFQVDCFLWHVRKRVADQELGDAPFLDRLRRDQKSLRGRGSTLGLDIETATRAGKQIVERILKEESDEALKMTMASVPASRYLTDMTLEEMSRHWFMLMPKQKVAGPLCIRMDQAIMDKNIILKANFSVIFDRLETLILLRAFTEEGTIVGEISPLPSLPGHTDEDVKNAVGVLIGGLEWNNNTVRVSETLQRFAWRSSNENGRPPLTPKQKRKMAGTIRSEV

SMILES: NS(=O)(=O)c1ccc(NC(=S)NC(=O)c2ccc3c(c2)OCO3)cc1
- IC50 [1]: 19.5 µM (not active)
- IC50 [2]: 33.3 µM (not active)

SMILES: O=C(NN/C=C1\C(=O)N(c2ccc(Cl)cn2)C(=O)c2ccccc21)c1ccncc1
- EC50 [3]: > 100 µM (active)
- AC50 [4]: 5.43 µM (active)
- EC50 [5]: 6.13 µM (active)
- AC50 [6]: > 100 µM (inactive)

SMILES: COc1ccc(/C=C/C(=O)c2cc(F)ccc2OC(=O)c2ccccc2OC)cc1OC
- CC50 (HeLa): 14.6 µM (not active)
- EC50 (BJ [7]): 1.14 µM (inconclusive)
- EC50 (BJ [8]): 2.76 µM (active)
- EC50 (BJ [9]): 1.41 µM (active)
- EC50 [10]: 2.56 µM (active)

SMILES: C=C(C)COc1ccc(-c2n[nH]cc2Oc2cccc(OC)c2)c(O)c1
- EC50 [11]: 8.18 µM (active)
- EC50 (Streptokinase A): > 150 µM (not active)
- EC50 [12]: 8.77 µM (active)
- EC50 [13]: 7.54 µM (active)
- IC50 [14]: 7.92 µM (not active)
- EC50 (Streptococcus): 10 µM (active)
- IC50 [15]: > 20 µM (inactive)
- AC50 [16]: 7.54 µM (active)
- IC50 [17]: > 69.5 µM (inactive)

SMILES: CCCCC(=O)NNC(=S)NC(=O)c1cccc([N+](=O)[O-])c1
- IC50 (Leucine aminopeptidase): 49.1 µM (active)
- IC50 [18]: > 50 µM (not active)
- AC50 (Cytochrome P450 2C19): 15.8 µM (inconclusive)
- AC50 (Cytochrome P450 1A2): 22.4 µM (inconclusive)
- AC50 (Cytochrome P450 3A4): inconclusive

SMILES: CC1C/C(=C/c2ccccn2)C(=O)/C(=C/c2ccccn2)C1 (centres undefined)
- CC50 (HeLa): > 1.22 µM (not active)

SMILES: CCc1nnc(NC(=O)CSc2nc3cc4c(cc3cc2C)OCCO4)s1
- IC50 [1]: 5.82 µM (active)
- IC50 [2]: > 111 µM (not active)
- AC50 (Cytochrome P450 2C19): 6.31 µM (inconclusive)
- AC50 (Cytochrome P450 1A2): 1.58 µM (inconclusive)
- AC50 (Cytochrome P450 2C9): 0.398 µM (inconclusive)

SMILES: CC(=O)NC(c1ccccc1)c1cc([N+](=O)[O-])c2cccnc2c1O (centres undefined)
- EC50 [3]: > 100 µM (active)
- AC50 [19]: 1.69 µM (active)
- IC50 (Nonstructural protein 1): 5.52 µM (active)
